From ChEMBL document CHEMBL1201862, “PubChem BioAssay data set” (2004)
The source made the active and inactive calls.

Experiments:
[1] = target: T1, Carboxy-terminal domain RNA polymerase II polypeptide A small phosphatase 1 (Homo sapiens, UniProt Q9GZU7); experiment: inhibitors of CTDSP1, concentration-response testing, biochemical assay, absorbance-based, actives from ultra-high-throughput screening (AID 540297); type: functional
T1 sequence (Q9GZU7 whole entry): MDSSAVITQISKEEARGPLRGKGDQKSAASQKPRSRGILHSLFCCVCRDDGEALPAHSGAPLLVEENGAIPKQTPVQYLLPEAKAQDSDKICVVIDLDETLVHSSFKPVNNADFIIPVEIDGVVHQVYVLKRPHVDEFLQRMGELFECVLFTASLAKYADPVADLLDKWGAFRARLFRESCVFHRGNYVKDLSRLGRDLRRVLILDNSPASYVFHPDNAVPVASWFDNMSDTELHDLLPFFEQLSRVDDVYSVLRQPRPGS

Estrogen receptor = target: T2, Estrogen receptor (Homo sapiens, UniProt P03372);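 note: potency for inhibiting coactivator peptide recruitment to the receptor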
T2 sequence (P03372 whole entry): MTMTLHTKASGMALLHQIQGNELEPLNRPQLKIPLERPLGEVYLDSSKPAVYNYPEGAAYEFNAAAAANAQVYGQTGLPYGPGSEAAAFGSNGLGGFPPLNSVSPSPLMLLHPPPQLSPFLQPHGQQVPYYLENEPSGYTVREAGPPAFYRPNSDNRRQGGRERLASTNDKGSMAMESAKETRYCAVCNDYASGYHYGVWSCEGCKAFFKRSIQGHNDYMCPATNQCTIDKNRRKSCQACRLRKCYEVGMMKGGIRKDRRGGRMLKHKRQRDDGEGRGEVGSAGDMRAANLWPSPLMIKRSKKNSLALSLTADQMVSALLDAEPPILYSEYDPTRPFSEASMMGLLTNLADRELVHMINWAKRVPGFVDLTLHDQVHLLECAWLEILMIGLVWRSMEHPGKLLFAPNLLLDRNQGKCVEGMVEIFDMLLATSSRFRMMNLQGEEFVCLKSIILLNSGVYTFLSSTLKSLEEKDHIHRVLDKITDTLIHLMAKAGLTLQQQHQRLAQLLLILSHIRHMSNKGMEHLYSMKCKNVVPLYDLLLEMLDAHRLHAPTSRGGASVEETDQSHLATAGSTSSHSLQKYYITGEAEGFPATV

Bcl-2-like protein 10 = Bcl-2-like protein 10 (Homo sapiens, UniProt Q9HD36); experiment: displacers of TR3 peptide from Bcl-B, primary screen, selectivity assay for Bfl-1 inhibitor project, biochemical, fluorescence polarization, FITC-TR3 peptide (AID 748);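 note: fluorescence polarization from a fluorescein-labelled TR3 peptide binding purified Bcl-B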
Estrogen receptor beta [2] = target: T3, Estrogen receptor beta (Homo sapiens, UniProt Q92731);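 note: recombinant ER-beta bound to coactivator SRC1 peptide in presence of estradiol agonist; inhibitors block coactivator peptide binding and lower the FRET signal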
Estrogen receptor beta [3] = target: T3, Estrogen receptor beta; experiment: ERβ–SRC-3 coactivator interaction inhibitors, confirmation, orthogonal assay, biochemical, ELISA, streptavidin-HRP readout (AID 1060)
[4] = target: Transitional endoplasmic reticulum ATPase (Homo sapiens, UniProt P55072); experiment: p97 ATPase inhibitors, dose response, biochemical (AID 1534)
[5] = target: Transitional endoplasmic reticulum ATPase (Homo sapiens, UniProt P55072, C522A); experiment: C522A mutant p97 ATPase inhibitors, dose response, counter-screen for p97 inhibitor project, biochemical, luminescence (AID 1544)
NS3 = NS3 (Hepatitis C virus, UniProt A3EZJ3); experiment: PubChem AID 2173; parameters: species or system Hepacivirus hominis
Galanin receptor type 2 = Galanin receptor type 2 (Homo sapiens, UniProt O43603); experiment: Dose Response cell-based high-throughput screening assay to identify antagonists of galanin receptor 2 (GALR2). [Related pubchem assays: 828, 866 ]; type: functional
[6] = microbe, parasite or virus in culture; type: functional; settings: Mycobacterium tuberculosis
[7] = target: T4, Heat shock factor protein 1 (Mus musculus, UniProt P38532); experiment: HSF1 potentiators in luciferase reporter cells, confirmation, cell-based, NIH3T3, luminescence, dose retest (AID 435004); type: functional;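 note: stress induced by proteasome inhibitor MG132 added 30 min after compound; luciferase reporter driven by HSF1 response element in NIH3T3 cells; actives raise luminescence as potentiators of the MG132 stress response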
T4 sequence (P38532 whole entry): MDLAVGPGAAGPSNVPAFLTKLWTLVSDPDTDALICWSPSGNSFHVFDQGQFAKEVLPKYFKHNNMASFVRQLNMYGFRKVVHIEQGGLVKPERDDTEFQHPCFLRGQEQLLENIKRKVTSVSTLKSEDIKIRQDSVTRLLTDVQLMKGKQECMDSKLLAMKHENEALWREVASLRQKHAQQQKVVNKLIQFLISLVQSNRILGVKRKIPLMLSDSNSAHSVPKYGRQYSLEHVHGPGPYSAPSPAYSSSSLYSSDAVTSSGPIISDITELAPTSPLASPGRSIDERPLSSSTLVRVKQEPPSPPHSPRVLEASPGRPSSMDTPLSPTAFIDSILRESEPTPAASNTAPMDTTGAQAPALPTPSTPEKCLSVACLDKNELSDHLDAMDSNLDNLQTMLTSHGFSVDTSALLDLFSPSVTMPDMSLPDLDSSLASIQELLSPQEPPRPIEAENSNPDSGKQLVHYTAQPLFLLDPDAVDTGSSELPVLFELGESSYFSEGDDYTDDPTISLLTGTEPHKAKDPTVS

[8] = target: T5, Mannose-6-phosphate isomerase (Homo sapiens, UniProt P34949); experiment: human PMI inhibitors, high substrate, primary screen, biochemical, fluorescence intensity, high mannose 6-phosphate (AID 1220)
T5 sequence (P34949 whole entry): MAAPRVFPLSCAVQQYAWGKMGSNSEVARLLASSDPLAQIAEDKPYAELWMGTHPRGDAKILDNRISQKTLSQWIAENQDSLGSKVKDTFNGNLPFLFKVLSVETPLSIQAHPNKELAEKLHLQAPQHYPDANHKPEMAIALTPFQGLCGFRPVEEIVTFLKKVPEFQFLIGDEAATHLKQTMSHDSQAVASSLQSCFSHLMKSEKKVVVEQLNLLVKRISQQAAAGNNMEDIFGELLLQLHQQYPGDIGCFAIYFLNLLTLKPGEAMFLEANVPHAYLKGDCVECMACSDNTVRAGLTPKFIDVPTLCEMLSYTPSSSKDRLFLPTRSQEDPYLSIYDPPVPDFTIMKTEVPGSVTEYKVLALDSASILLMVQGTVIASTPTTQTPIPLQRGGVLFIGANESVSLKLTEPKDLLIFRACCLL

Beta-galactosidase = Beta-galactosidase (Escherichia coli, UniProt Q8VNN2); experiment: beta-galactosidase enzyme inhibitors and activators, dose response, artefact control for CCR6 antagonist project, biochemical, E. coli enzyme, set 3 (AID 504712); type: functional
[9] = target: C-C chemokine receptor type 6 (Homo sapiens, UniProt P51684); experiment: CCR6 receptor antagonists, dose response, cell-based, luminescent beta-arrestin readout (AID 504728); type: functional
[10] = target: T5, Mannose-6-phosphate isomerase; experiment: inhibitors of human PMI, primary screen, biochemical, fluorescence intensity, coupled assay (AID 1209)
[11] = target: Lysosomal acid glucosylceramidase (Homo sapiens, UniProt P04062); experiment: Dose response cell-based high throughput screening assay to identify enhancers of beta-glucosidase activity. [Related pubchem assays: 784 ]; type: functional
[12] = target: Photoreceptor-specific nuclear receptor (Homo sapiens, UniProt Q9Y5X4); type: functional;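 note: potency for compounds that break the NR2E3 corepressor complex and count as activators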
[13] = target: Peroxisome proliferator-activated receptor gamma/Nuclear receptor corepressor 2 (Homo sapiens, UniProt P37231+Q9Y618); type: functional
[14] = Cytotoxicity screening for potential Inhibitors of Bacterial Capsule Biogenesis. [Related pubchem assays (depositor defined):AID488970]; type: functional
HEK293 [15] = experiment: PMA/Ionomycin induced NF-kB luciferase assay in 293- NF-kB-Luc stable cells. [Related pubchem assays: 1299, 1270, 1295, 1375, 1287, 1281, 1293, 1291, 1289, 1280, 465, 1364, 1282, 1372, 1365, 1370, 1367, 1366, 1269, 1373, 1292, 1290, 1302, 1371, 1283, 1271, 1294, 1374, 1368, 1369 ]; type: functional, cell-based; settings: Homo sapiens
[16] = target: T6, Microphthalmia-associated transcription factor (Homo sapiens, UniProt O75030); experiment: TRPM1 promoter luciferase signal decrease, dose response, MITF inhibitor project, cell-based, SK-MEL-5, cherry-picked, set 3 (AID 493073); type: functional
T6 sequence (O75030 whole entry): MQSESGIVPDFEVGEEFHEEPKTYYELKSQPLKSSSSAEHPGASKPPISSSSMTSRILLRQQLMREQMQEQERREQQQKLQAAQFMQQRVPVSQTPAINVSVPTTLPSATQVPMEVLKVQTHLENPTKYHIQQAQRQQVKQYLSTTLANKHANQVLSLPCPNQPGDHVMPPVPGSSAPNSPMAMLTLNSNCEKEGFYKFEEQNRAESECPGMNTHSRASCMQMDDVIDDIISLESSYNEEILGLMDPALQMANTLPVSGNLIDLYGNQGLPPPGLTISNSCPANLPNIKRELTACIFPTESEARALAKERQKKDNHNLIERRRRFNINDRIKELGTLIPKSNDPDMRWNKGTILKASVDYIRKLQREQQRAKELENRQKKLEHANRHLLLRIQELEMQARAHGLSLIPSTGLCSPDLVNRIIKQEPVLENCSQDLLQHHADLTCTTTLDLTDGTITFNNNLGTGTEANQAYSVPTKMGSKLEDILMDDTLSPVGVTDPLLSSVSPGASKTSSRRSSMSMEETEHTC

[17] = target: T4, Heat shock factor protein 1; experiment: inhibition of MG132-induced HSE-luciferase signal, confirmation, cell-based, NIH3T3, luminescence, dose retest (AID 2382); type: functional;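 note: NIH3T3 fibroblasts with HSF1-driven luciferase reporter stressed by proteasome inhibitor MG132; luminescence from HSF1-driven luciferase expression after 8 hours of MG132 stress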
[18] = target: T7, Luciferin 4-monooxygenase (Photinus pyralis, UniProt P08659); experiment: Counter Screen for Luciferase-based Assay Positives. [Related pubchem assays: 620, 618, 411 ]
[19] = cytotoxicity in HEK-293T NF-kB-Luc cells, dose response, cytotoxicity control for B/T-cell NF-kB inhibitor project, cell-based, uHTS hits (AID 489019); type: functional;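 note: IC50 reflects cytotoxicity as loss of cell viability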
HEK293 [20] = experiment: Cytotoxicity assay in HEK293 cells. [Related pubchem assays (depositor defined):AID1266, AID1269, AID1270, AID1271, AID1280, AID1281, AID1282, AID1283, AID1287, AID1289, AID1290, AID1291, AID1292, AID1293, AID1294, AID1295, AID1299, AID1302, AID1364, AID1365, AID1366, AID1367, AID1369, AID1370, AID1371, AID1372, AID1373, AID1374, AID1375, AID1384 …; type: functional, cell-based; settings: Homo sapiens
Jurkat = experiment: antigen receptor-induced NF-kB inhibitors, dose response, Jurkat, luciferase reporter, luminescence, B- and T-cell (AID 489004); type: functional, cell-based; settings: Homo sapiens;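 note: NF-kB luciferase reporter Jurkat cells stimulated with PMA plus ionomycin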
HT-1080 = experiment: cytotoxicity in HT1080 fibrosarcoma cells, cell-based, fluorescence readout (AID 620); type: functional; settings: Homo sapiens
[21] = target: T7, Luciferin 4-monooxygenase; experiment: In vitro luciferase assay using purified luciferase. [Related pubchem assays: 1299, 1270, 1295, 1375, 1287, 1281, 1293, 1291, 1289, 1280, 465, 1364, 1282, 1372, 1365, 1370, 1367, 1366, 1266, 1373, 1292, 1290, 1302, 1371, 1283, 1271, 1294, 1374, 1368, 1369 ]
X-box-binding protein 1 = X-box-binding protein 1 (Homo sapiens, UniProt P17861); type: functional, Cricetulus griseus;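 note: confirmatory dose-response counter-screen serving a CHOP assay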
HeLa = experiment: HeLa cell cytotoxicity, dose response, cytotoxicity control, 24 h, cherry-picked samples (AID 504726); type: functional, cell-based; settings: Homo sapiens;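 note: potency for cytotoxicity as loss of luminescence signal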
[22] = target: T8, Eukaryotic translation initiation factor 2-alpha kinase 3 (Homo sapiens, UniProt Q9NZJ5); experiment: Counterscreen assay for PERK inhibitors: Dose response cell-based high throughput screening assay to measure inhibition of PERK at 6 hours. [Related pubchem assays: 1522, 1416 ]; type: functional
[23] = target: T8, Eukaryotic translation initiation factor 2-alpha kinase 3; experiment: Dose response cell-based high-throughput screening assay to measure PERK inhibition. [Related pubchem assays: 1416 ]; type: functional

T8 sequence (Q9NZJ5 whole entry): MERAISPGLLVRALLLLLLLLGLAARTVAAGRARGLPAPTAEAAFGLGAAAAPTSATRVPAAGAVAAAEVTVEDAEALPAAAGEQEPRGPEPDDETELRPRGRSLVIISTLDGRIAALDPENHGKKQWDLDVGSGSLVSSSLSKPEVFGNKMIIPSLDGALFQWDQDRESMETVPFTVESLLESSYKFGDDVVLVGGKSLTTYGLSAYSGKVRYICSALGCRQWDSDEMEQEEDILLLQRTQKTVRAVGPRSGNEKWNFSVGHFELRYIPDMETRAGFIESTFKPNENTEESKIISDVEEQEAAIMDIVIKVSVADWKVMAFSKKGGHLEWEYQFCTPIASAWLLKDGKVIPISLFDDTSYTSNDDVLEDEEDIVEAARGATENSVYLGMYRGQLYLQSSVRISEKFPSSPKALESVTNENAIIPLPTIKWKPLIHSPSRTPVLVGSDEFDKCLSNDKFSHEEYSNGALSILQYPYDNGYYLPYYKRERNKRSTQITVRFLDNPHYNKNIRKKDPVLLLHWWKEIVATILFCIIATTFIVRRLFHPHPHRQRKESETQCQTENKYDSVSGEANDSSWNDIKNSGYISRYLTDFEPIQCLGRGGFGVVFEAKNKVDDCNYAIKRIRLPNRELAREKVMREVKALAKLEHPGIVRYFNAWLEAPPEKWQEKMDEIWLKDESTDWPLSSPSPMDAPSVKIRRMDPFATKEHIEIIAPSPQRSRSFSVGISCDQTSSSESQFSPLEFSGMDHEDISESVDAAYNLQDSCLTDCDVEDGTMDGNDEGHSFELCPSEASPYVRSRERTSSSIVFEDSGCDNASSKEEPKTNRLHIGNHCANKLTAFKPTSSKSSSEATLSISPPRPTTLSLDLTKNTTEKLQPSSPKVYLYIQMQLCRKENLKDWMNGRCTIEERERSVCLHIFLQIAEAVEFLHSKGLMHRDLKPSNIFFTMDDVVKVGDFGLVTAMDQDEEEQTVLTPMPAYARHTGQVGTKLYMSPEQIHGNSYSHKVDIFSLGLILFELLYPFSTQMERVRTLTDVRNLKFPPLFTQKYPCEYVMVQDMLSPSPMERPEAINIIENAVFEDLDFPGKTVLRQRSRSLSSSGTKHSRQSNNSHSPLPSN
T7 sequence (P08659 whole entry): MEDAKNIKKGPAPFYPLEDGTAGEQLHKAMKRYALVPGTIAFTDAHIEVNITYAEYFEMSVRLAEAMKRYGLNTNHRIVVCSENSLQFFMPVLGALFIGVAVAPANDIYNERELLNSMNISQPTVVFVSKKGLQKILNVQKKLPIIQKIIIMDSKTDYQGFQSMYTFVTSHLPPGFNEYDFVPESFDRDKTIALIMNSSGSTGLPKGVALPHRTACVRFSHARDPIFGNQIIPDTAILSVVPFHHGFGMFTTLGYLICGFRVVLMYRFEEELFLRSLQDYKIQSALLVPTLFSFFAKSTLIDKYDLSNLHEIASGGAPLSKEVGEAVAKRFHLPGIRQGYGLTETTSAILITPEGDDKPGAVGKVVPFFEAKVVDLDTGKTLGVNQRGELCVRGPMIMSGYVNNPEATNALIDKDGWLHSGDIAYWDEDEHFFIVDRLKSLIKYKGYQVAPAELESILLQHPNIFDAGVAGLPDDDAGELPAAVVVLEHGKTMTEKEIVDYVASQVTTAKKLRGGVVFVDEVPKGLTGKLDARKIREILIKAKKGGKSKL
T3 sequence (Q92731 whole entry): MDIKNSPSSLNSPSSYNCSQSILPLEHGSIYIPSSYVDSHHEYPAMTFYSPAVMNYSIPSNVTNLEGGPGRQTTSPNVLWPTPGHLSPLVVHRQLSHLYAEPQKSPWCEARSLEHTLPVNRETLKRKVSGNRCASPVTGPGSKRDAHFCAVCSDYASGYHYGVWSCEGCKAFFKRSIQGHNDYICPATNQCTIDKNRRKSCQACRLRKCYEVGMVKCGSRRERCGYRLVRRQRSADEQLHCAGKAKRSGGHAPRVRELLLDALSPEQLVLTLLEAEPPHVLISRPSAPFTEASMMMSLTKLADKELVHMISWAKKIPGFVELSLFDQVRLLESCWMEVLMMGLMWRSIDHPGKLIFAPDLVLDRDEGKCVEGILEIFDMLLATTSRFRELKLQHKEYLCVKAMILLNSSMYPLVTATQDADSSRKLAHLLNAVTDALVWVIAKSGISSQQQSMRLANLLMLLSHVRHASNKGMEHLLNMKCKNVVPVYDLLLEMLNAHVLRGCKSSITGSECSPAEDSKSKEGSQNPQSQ
Chain of Galanin receptor type 2 (O43603 whole entry): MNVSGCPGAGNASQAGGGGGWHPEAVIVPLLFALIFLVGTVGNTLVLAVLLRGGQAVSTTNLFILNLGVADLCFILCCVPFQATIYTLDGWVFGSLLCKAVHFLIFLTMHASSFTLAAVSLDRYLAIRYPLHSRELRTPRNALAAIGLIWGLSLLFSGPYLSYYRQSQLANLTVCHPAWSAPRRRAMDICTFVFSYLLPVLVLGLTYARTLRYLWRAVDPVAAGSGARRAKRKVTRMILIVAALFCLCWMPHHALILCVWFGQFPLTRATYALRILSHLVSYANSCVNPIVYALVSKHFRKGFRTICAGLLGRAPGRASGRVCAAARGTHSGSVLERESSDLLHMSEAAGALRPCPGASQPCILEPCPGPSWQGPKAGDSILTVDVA
Chain of X-box-binding protein 1 (P17861 whole entry): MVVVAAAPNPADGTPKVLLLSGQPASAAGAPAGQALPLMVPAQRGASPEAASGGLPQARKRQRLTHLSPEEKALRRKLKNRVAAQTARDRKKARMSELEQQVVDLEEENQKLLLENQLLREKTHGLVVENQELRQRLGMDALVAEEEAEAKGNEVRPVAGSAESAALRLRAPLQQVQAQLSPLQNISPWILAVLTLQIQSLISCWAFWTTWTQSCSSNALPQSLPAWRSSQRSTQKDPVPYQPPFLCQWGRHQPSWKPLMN
Chain of NS3 (A3EZJ3 whole entry): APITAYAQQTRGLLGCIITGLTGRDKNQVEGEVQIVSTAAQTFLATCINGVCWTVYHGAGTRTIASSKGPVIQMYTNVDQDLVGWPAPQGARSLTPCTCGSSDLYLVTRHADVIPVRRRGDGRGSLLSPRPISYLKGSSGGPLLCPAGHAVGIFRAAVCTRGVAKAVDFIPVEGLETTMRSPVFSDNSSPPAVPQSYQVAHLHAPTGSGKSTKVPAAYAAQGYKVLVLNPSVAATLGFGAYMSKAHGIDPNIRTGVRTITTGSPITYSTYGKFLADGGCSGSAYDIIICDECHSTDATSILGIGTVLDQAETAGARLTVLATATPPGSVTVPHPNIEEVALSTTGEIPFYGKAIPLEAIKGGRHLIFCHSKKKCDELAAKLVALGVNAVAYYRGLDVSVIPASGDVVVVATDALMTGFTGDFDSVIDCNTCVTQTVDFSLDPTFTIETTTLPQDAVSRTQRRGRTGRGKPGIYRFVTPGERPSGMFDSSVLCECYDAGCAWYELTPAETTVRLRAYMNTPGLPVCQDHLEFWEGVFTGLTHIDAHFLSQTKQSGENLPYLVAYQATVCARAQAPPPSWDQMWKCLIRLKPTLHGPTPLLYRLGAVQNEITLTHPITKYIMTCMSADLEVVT
Chain of Transitional endoplasmic reticulum ATPase (Homo sapiens, UniProt P55072) (P55072 whole entry): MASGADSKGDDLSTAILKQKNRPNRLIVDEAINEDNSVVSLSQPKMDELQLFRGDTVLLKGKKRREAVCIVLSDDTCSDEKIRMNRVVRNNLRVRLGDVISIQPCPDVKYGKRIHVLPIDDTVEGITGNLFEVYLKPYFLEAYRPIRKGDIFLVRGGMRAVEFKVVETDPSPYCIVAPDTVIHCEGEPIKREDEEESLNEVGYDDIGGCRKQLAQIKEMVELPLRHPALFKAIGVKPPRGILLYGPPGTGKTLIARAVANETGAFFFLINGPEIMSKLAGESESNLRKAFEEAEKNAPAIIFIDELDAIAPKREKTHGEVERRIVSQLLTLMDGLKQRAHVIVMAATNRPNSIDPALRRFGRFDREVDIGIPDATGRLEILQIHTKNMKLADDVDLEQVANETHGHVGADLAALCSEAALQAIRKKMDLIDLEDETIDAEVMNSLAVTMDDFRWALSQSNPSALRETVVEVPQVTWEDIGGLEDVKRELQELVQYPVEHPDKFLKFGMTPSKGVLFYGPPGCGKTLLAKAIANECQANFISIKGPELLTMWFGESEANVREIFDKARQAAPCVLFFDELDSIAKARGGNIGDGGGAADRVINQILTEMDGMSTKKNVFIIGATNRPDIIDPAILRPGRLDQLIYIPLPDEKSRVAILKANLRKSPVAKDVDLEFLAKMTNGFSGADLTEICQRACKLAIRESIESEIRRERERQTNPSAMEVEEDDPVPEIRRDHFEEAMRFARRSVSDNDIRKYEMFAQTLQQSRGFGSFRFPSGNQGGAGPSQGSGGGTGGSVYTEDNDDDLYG
Chain of Bcl-2-like protein 10 (Q9HD36 whole entry): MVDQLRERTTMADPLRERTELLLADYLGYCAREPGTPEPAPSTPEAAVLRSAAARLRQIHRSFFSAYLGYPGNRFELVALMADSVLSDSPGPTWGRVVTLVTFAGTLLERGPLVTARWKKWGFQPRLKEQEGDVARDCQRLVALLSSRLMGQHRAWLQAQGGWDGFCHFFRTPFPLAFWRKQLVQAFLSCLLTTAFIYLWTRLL
Chain of Photoreceptor-specific nuclear receptor (Q9Y5X4 whole entry): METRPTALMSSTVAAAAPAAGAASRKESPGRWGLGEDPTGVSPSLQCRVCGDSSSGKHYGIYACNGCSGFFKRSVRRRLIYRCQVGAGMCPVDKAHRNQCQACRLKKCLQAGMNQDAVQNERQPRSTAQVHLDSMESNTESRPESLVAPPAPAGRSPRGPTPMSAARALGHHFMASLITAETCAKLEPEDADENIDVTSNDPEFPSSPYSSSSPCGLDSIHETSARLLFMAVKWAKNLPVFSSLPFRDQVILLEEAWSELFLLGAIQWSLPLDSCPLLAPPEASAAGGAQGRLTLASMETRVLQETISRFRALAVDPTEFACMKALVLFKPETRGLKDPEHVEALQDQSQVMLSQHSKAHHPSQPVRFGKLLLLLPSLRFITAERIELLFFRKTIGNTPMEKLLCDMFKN

## COc1ccc2c(c1)c(=O)oc1cc(OCC(=O)NC3CCCCC3)ccc12
[1]
  IC50: 6.74 µM (active)
Estrogen receptor
  IC50: 17.9 µM (active)
Bcl-2-like protein 10
  IC50: 34.6 µM (active)
Estrogen receptor beta [2]
  IC50: 7.51 µM (active)
Estrogen receptor beta [3]
  IC50: > 50 µM (not active)

## O=C(CCl)Nc1nc(-c2ccco2)c(-c2ccco2)s1
[4]
  IC50: > 50 µM (not active)
[5]
  IC50: > 50 µM (not active)
NS3
  IC50: 47.8 µM (not active)

## O=[N+]([O-])c1cc(-c2ncccn2)c([N+](=O)[O-])s1
Galanin receptor type 2
  IC50: 8.96 µM (active)
[6]
  CC50: 23.2 µM (active)
[7]
  EC50: 6.64 µM (active)
[8]
  IC50: 7.48 µM (active)
Beta-galactosidase
  IC50: > 66.6 µM (inactive)
[9]
  IC50: 24 µM (inactive)
[10]
  IC50: 6.92 µM (active)

## Cc1nc(SCC(=O)Nc2ccc3c(c2)OCCO3)c2oc3ccccc3c2n1
[11]
  EC50: > 50 µM (not active)

## Cc1cccc(NC(=O)CSc2ncnc3c2oc2ccccc23)c1
[12]
  IC50: > 39.8 µM (not active)
[13]
  IC50: 3.35 µM (active)

## Cc1cccc(C)c1NC(=O)C[N+](C)(C)CC(O)COc1cccc2ccccc12 (configuration not stated)
[14]
  CC50: 22 µM (active)

## CC1CCN(c2nc3ccc(C(=O)O)cc3s2)CC1
HEK293 [15]
  EC50: 12.5 µM (not active)
[16]
  AC50: 1.25 µM (active)
[17]
  EC50: 0.268 µM (active)
[18]
  EC50: 7.86 µM (active)
[19]
  IC50: > 80 µM (inactive)
HEK293 [20]
  EC50: 13.1 µM (inactive)
Jurkat
  IC50: 1.82 µM (active)
HT-1080
  EC50: > 50 µM (not active)
[21]
  EC50: > 8 µM (not active)

## Cc1cccc(/C=C/c2nc(O)c3ccccc3n2)c1
X-box-binding protein 1
  Absolute IC50 (XBP1): 10 µM

## COc1cccc(NC(=O)N(CCN(C)C)C(C)c2cccnc2)c1 (configuration not stated)
HeLa
  AC50: 123 µM (active)

## O=C(N/N=C/c1ccncc1)c1ccccc1
[22]
  EC50: > 55.7 µM (not active)
[23]
  EC50: > 55.7 µM (not active)
